For one assay, the system named is T. cruzi trypomastigotes. Kind of assay: Antitrypomastigote assay (T. cruzi), resazurin. Type of assay: cell-based, Trypanosoma (T.) cruzi. Particulars: Trypanosoma cruzi, 24 h, ± SD, resazurin, read-out: T. cruzi IC50 trypomastigotes.
Assay [1] concerns L. mexicana promastigotes. Kind of assay: Growth studies, 24 h promastigote culture. Type of assay: cell-based, Leishmania (L.) mexicana. Here is the method:
Preliminary investigations into the mechanism of action for compounds (S)-9a, (S)-9b and (S,R)-11 were carried out using L. mexicana promastigotes. Light microscopy-based techniques were employed to further explore compound activity in a different, related Leishmania species. […] A solvent-only control using 0.1% (v/v) DMSO led to no significant effects. Cell cultures were examined by light microscopy to identify any morphological changes resulting from compound treatment (Figure 2B). […] Cells treated with the BI and BBI compounds develop a changed morphology with a spherical cell body or shortened flagellum. This effect is observed in 25% of the population for compound (S)-9a, to a greater extent (66%) for (S)-9b, and 27% for compound (S,R)-11. An abnormal number and position of Ks and Ns were often observed, with Ks and Ns sometimes less well-defined by Hoechst 33342 staining.
(§1) NCTC cells (6 × 10^4/well) were added to a 96-well plate. Treatments of the cells with selected compounds (serially diluted 1.5 to 200 μM) was performed in a humidified incubator for 96 h at 37 °C and with 5% CO2.
(§2) The MTT colorimetric method was used to determine the 50% cytotoxic concentration (CC50) and the selectivity index (CC50 against NCTC cells/IC50 against amastigotes).15 […]
(§3) […] […] Statistical significance was derived from a two-tailed T-test.
(§4) The Graph Pad Prism 5 software was used to perform sigmoid dose-response curves for the determination of […]
(§5) […] At 6 h and 24 h post-treatment, a 1 mL aliquot was taken for imaging. The cell cycle experiment was preformed twice independently.
(§6) Generation of mNG::RAD51 tagged cell line
(§7) The single-stranded DNA-binding protein RAD51, associated with DNA Repair, LmxM.28.0550 was tagged with endogenous fluorescent protein mNeonGreen (mNG) at the N-terminus. […]
Primers for constructs and sgRNA were designed using LeishGEdit (http://www.leishGEdit.net).
PCR was at 94 °C for 5 min, followed by 35 cycles at 94 °C (15 sec), 65 °C (15 sec), 72 °C (2 min) then finally 72 °C (1 min). […]

The test system of assay [2] is L. mexicana promastigotes. Kind of assay: Cell cycle studies (K/N counts). Type of assay: cell-based, Leishmania (L.) mexicana. To be noted: 50 μM, 6 and 24 h. Here is the method: To investigate whether the morphological changes are a consequence of cell cycle interference, we analyzed the cell cycle over a 24 h period. Untreated L. mexicana promastigotes typically have a doubling time of 7.1 h, with each of the DNA-containing organelles replicating once in the order […], before cytokinesis, leading to two daughter cells.[37],[38] […] Cells treated with (S)-9a at 50 μM were studied after 6 and 24 h of treatment, and found to deviate from the typical cell cycle, giving rise to abnormal categories of cells with incorrectly replicated organelles (Figure 2C). For around 15% of the cells in 1K1N there was the presence of an eXtra structure (1K1N1X) that could not be clearly assigned as K or N, generally toward the posterior end of the cell body.
as §1, §2, §3, §4

Another assay deals with mNG::RAD51 promastigotes. Description: mNG::RAD51 nuclear foci studies. Type of assay: cell-based, Leishmania (L.) mexicana. To be noted: 50 μM, up to 24 h.
Text: DSBs often lead to cytotoxicity, which could be an explanation for the observed compound activity.[44]−[46]Leishmania employ the RAD51 DNA recombinase protein as part of its DNA repair machinery to fix naturally occurring nuclear DSBs via homologous recombination.[47]−[50] Using a CRISPR/Cas9 gene editing strategy,[51] we generated a genetically modified cell line with mNeonGreen tagged RAD51. This would allow observation of fluorescent RAD51 protein recruitment to foci in the nucleus corresponding to DSB accumulation, as has been shown in T. brucei.[52],[53] Phleomycin was used as a positive control to induce DSBs,[54] which led to the expected observation of accumulation of RAD51 as green dots in the nucleus in 80% of cells from as early as 2 h posttreatment (Figure 2D). […] We can therefore conclude that the BI compounds tested are unlikely to act via DSBs (albeit this methodology is sensitive only to DSBs in nuclear DNA), and another mechanism of cell cycle disruption is responsible for the breakdown in the healthy cell cycle.
as §1, §2, §3, §4, §5, §6, §7
Primers for constructs and sgRNA were designed using LeishGEdit (http://www.leishGEdit.net). […]

The values that follow come from PMC10900488, “Synthesis and Evaluation of (Bis)benzyltetrahydroisoquinoline Alkaloids as Antiparasitic Agents” (JACS Au, 2024).

On to `COc1cc2c(cc1OC)[C@H](Cc1ccc(Br)cc1)N(C)CC2` [(S)-9a], for which, in the assay with T. cruzi trypomastigotes, the IC50 amounted to 14.4 ± 5.5 µM. Moreover, the “concentration sufficient to inhibit growth over 24 h” value in assay [1] was 50 µM. Further, the “cells in 1K1N with an extra structure (1K1N1X)” value in assay [2] was “around 15%”. For the same compound, the “proportion of cells in the dividing stages (Non-1K1N)” value in assay [2] (versus the expected 10%) is “doubled”. Besides, the RAD51 nuclear foci result with mNG::RAD51 promastigotes is “no RAD51 nuclear foci”.

Regarding `COc1cc2c(cc1OC)[C@H](Cc1ccc(OC)c(OCc3ccccc3)c1)N(C)CC2` [(S)-9b], in the assay on T. cruzi trypomastigotes, the IC50 amounted to 57.7 ± 2.3 µM. Also, the “concentration sufficient to inhibit growth over 24 h” value in assay [1] came to 50 µM. In addition, the RAD51 nuclear foci entry in the assay with mNG::RAD51 promastigotes is on record as “no RAD51 nuclear foci”.

`COc1cc2c(cc1OC)[C@@H](Cc1ccc(Oc3cc(C[C@H]4c5cc(OC)c(OC)cc5CCN4C)ccc3OC)cc1)N(C)CC2` [(S,R)-11, (−)-O,O′-dimethylgrisabine]: the IC50 in the assay with T. cruzi trypomastigotes came to 2.6 ± 2.9 µM. Also, in assay [1], the “potency in growth inhibition relative to (S)-9a and (S)-9b” value worked out at 10 fold.
